Results reported in patent US10392391B2 (Vertex Pharmaceuticals Incorporated, priority 2012, dated 2019).
Where two headings read alike, the source gives them in different places.

Molecular target: ATR kinase (full-length ATR) (Homo sapiens (Human), UniProt Q13535)
Assay: ATR inhibition assay (radioactive-phosphate incorporation)
Type: biochemical
Summary of the method: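 Radiometric 33P incorporation by 5 nM full-length ATR into 800 μM target peptide with 10 μM [γ-33P]ATP, in 50 mM Tris/HCl pH 7.5, 10 mM MgCl2, 1 mM DTT, 7% DMSO, 25° C. Compound pre-incubated 10 minutes; reaction stopped after 24 hours, captured on phosphocellulose. Ki(app) from non-linear regression of initial rates.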

[1] = Ki(app), 5 nM full-length ATR, 10 μM ATP, 25° C.

Chain of ATR kinase (full-length ATR) (Q13535 whole entry): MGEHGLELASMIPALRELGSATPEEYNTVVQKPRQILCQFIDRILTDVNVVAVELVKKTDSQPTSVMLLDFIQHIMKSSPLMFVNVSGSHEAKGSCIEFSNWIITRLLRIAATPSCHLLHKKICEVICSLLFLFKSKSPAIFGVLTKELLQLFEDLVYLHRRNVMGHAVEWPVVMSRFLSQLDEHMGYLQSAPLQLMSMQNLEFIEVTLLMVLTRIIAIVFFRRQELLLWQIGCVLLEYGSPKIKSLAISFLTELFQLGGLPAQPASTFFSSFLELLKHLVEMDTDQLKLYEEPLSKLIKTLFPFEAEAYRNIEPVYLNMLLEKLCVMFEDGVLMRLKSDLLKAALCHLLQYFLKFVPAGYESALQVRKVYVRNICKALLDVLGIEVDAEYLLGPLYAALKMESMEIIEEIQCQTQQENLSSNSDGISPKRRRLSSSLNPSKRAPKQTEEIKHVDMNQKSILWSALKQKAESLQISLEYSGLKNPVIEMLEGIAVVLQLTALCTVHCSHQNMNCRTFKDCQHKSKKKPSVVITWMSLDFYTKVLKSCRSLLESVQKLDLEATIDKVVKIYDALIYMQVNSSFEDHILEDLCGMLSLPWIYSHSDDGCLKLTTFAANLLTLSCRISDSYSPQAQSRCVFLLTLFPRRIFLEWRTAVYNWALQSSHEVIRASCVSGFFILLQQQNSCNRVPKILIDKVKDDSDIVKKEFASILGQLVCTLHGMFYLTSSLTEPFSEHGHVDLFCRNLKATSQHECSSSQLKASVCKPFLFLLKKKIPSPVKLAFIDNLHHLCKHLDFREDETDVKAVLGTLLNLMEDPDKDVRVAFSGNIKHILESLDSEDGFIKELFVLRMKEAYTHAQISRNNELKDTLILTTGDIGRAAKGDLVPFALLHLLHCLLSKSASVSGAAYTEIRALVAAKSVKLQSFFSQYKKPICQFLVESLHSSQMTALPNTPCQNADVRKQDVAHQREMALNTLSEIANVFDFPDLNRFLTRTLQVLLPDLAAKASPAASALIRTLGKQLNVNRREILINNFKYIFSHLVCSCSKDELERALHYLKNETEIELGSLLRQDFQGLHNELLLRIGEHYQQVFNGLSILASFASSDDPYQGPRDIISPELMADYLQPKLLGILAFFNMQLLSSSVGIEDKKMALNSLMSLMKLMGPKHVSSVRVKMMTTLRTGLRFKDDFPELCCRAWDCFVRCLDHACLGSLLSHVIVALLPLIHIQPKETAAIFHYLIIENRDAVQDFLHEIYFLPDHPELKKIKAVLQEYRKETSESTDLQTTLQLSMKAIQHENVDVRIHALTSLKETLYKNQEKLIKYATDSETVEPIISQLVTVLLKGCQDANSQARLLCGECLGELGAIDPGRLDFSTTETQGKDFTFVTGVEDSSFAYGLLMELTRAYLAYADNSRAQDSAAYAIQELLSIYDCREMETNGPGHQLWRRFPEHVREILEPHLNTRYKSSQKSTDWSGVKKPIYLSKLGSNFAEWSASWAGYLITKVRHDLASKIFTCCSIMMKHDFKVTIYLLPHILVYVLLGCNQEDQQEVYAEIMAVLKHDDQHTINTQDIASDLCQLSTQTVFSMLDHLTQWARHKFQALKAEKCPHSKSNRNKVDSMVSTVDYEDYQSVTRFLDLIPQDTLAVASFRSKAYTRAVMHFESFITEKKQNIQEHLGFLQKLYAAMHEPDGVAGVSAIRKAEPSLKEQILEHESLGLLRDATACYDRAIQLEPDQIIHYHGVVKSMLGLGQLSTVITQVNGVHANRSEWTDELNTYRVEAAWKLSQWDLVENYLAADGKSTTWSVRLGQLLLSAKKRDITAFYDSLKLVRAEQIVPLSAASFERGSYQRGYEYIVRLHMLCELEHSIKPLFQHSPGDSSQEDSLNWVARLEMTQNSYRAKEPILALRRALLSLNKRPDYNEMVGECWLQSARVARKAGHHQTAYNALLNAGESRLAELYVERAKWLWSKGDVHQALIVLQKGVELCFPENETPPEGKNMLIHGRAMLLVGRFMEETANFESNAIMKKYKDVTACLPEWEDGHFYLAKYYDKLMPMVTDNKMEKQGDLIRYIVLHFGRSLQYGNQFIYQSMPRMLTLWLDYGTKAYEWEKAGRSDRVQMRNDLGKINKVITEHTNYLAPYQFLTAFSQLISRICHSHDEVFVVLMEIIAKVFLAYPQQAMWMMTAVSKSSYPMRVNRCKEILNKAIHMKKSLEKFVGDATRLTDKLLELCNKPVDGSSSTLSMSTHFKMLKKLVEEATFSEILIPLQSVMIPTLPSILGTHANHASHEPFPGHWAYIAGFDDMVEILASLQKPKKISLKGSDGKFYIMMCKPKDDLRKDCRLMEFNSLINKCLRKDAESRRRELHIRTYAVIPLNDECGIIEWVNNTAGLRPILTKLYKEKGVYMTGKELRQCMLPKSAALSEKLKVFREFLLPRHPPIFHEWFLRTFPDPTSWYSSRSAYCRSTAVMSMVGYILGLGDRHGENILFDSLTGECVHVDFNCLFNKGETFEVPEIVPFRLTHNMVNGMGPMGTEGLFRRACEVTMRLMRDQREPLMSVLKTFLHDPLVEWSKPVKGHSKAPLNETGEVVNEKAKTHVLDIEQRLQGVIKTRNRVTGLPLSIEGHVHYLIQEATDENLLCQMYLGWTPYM

Q: Which Ki [1] does the source give for `Nc1nn2cc(F)cnc2c1C(=O)Nc1cnccc1N1CCN2CCC1CC2` [I-N-18, N-(4-(1,4-diazabicyclo[3.2.2]nonan-4-yl)pyridin-3-yl)-2-amino-6-fluoropyrazolo[1,5-a]pyrimidine-3-carboxamide] here?
A: The Ki was 10 to 1000 nM.

Q: `CNc1cc(N2CCN(C)CC2)c(NC(=O)c2c(N)nn3cc(F)cnc23)cn1` [I-N-129, 2-amino-6-fluoro-N-(6-(methylamino)-4-(4-methylpiperazin-1-yl)pyridin-3-yl)pyrazolo[1,5-a]pyrimidine-3-carboxamide] was tested. Which Ki [1] did it give?
A: Its Ki is 10 to 1000 nM.

Q: With `Nc1nn2cc(F)cnc2c1C(=O)Nc1cncc(F)c1N1CCCC1` [I-N-246, 2-amino-6-fluoro-N-(5-fluoro-4-(pyrrolidin-1-yl)pyridin-3-yl)pyrazolo[1,5-a]pyrimidine-3-carboxamide] as the molecule, how does the Ki [1] read?
A: The Ki was 10 to 1000 nM.

Q: For `CN1CCC(c2ccncc2NC(=O)c2c(N)nn3cc(F)cnc23)CC1=O` (stereo not drawn) [I-C-73, 2-amino-6-fluoro-N-(4-(1-methyl-2-oxopiperidin-4-yl)pyridin-3-yl)pyrazolo[1,5-a]pyrimidine-3-carboxamide], which Ki [1] is on record?
A: Its Ki is 10 to 1000 nM.

Q: How did the Ki [1] turn out when `Nc1nn2cc(F)cnc2c1C(=O)Nc1cnccc1C1CCN(C(=O)C2CC2)CC1` [I-C-70, 2-amino-N-(4-(1-(cyclopropanecarbonyl)piperidin-4-yl)pyridin-3-yl)-6-fluoropyrazolo[1,5-a]pyrimidine-3-carboxamide] was run?
A: Its Ki is 10 to 1000 nM.

Q: For `CCN1CCN(C(=O)C2CCN(c3c(F)cncc3NC(=O)c3c(N)nn4cc(F)cnc34)CC2)CC1` [I-G-9, 2-amino-N-(4-(4-(4-ethylpiperazine-1-carbonyl)piperidin-1-yl)-5-fluoropyridin-3-yl)-6-fluoropyrazolo[1,5-a]pyrimidine-3-carboxamide], which Ki [1] is on record?
A: The Ki was 10 to 1000 nM.

Q: With `Nc1nn2cc(F)cnc2c1C(=O)Nc1cncc(F)c1N1CCN(C(=O)C2CNCCO2)CC1` (stereo not drawn) [I-N-172, 2-amino-6-fluoro-N-(5-fluoro-4-(4-(morpholine-2-carbonyl)piperazin-1-yl)pyridin-3-yl)pyrazolo[1,5-a]pyrimidine-3-carboxamide] as the molecule, how does the Ki [1] read?
A: Its Ki is 10 to 1000 nM.

Q: With `CN1C[C@@H]2CCN(c3ccncc3NC(=O)c3c(N)nn4cc(F)cnc34)C[C@@H]2C1=O` [I-N-224, 2-amino-6-fluoro-N-(4-((3aR,7aR)-2-methyl-3-oxohexahydro-1H-pyrrolo[3,4-c]pyridin-5(6H)-yl)pyridin-3-yl)pyrazolo[1,5-a]pyrimidine-3-carboxamide] as the molecule, how does the Ki [1] read?
A: Its Ki is 10 to 1000 nM.

Q: For `Cn1ccc(-c2ccncc2NC(=O)c2c(N)nn3cc(F)cnc23)n1` [I-C-68, 2-amino-6-fluoro-N-(4-(1-methyl-1H-pyrazol-3-yl)pyridin-3-yl)pyrazolo[1,5-a]pyrimidine-3-carboxamide], which Ki [1] is on record?
A: Its Ki is 10 to 1000 nM.

Q: For `Nc1nn2cc(F)cnc2c1C(=O)Nc1cncc(F)c1N1CCC(C(=O)N2CCC(N3CCCCC3)CC2)CC1` [I-G-60, N-(4-(4-([1,4′-bipiperidine]-1′-carbonyl)piperidin-1-yl)-5-fluoropyridin-3-yl)-2-amino-6-fluoropyrazolo[1,5-a]pyrimidine-3-carboxamide], which Ki [1] is on record?
A: Its Ki is 10 to 1000 nM.

Q: How did the Ki [1] turn out when `N#CCc1cnc2c(C(=O)Nc3cnccc3OC3CCCCC3)c(N)nn2c1` [I-O-39, 2-amino-6-(cyanomethyl)-N-(4-(cyclohexyloxy)pyridin-3-yl)pyrazolo[1,5-a]pyrimidine-3-carboxamide] was run?
A: The Ki was less than 10 nM.

Q: With `Nc1nn2cc(F)cnc2c1C(=O)Nc1cncc(F)c1N1CCC(C(=O)N2CC(F)(F)C2)CC1` [I-G-73, 2-amino-N-(4-(4-(3,3-difluoroazetidine-1-carbonyl)piperidin-1-yl)-5-fluoropyridin-3-yl)-6-fluoropyrazolo[1,5-a]pyrimidine-3-carboxamide] as the molecule, how does the Ki [1] read?
A: The Ki was 10 to 1000 nM.

Q: How did the Ki [1] turn out when `Nc1nn2cc(F)cnc2c1C(=O)Nc1cnccc1N1CCC(C(=O)N2CCC2)CC1` [I-G-77, 2-amino-N-(4-(4-(azetidine-1-carbonyl)piperidin-1-yl)pyridin-3-yl)-6-fluoropyrazolo[1,5-a]pyrimidine-3-carboxamide] was run?
A: The Ki was 10 to 1000 nM.

Q: `CN1CCN(CC2CCN(c3c(F)cncc3NC(=O)c3c(N)nn4cc(F)cnc34)CC2)C(=O)C1` [I-N-193, 2-amino-6-fluoro-N-(5-fluoro-4-(4-((4-methyl-2-oxopiperazin-1-yl)methyl)piperidin-1-yl)pyridin-3-yl)pyrazolo[1,5-a]pyrimidine-3-carboxamide] was tested. Which Ki [1] did it give?
A: The Ki was 10 to 1000 nM.

Q: Which Ki [1] does the source give for `CN1CCCN(c2ccncc2NC(=O)c2c(N)nn3cc(Cl)cnc23)CC1` [I-N-43, 2-amino-6-chloro-N-(4-(4-methyl-1,4-diazepan-1-yl)pyridin-3-yl)pyrazolo[1,5-a]pyrimidine-3-carboxamide] here?
A: Its Ki is 10 to 1000 nM.

Q: For `C[N+]1([O-])CCN(C(=O)C2CCN(c3c(F)cncc3NC(=O)c3c(N)nn4cc(F)cnc34)CC2)CC1` [I-G-95, 4-(1-(3-(2-amino-6-fluoropyrazolo[1,5-a]pyrimidine-3-carboxamido)-5-fluoropyridin-4-yl)piperidine-4-carbonyl)-1-methylpiperazine 1-oxide], which Ki is on record?
A: The Ki was 10 to 1000 nM.

Q: How did the Ki [1] turn out when `Cc1ncnn1-c1ccncc1NC(=O)c1c(N)nn2cc(F)cnc12` [I-N-162, 2-amino-6-fluoro-N-(4-(5-methyl-1H-1,2,4-triazol-1-yl)pyridin-3-yl)pyrazolo[1,5-a]pyrimidine-3-carboxamide] was run?
A: The Ki was 10 to 1000 nM.

Q: How did the Ki [1] turn out when `COC(=O)[C@H]1CC[C@@H](Oc2ccncc2NC(=O)c2c(N)nn3cc(F)cnc23)CC1` [I-O-18, (1s,4s)-methyl 4-((3-(2-amino-6-fluoropyrazolo[1,5-a]pyrimidine-3-carboxamido)pyridin-4-yl)oxy)cyclohexanecarboxylate] was run?
A: The Ki was 10 to 1000 nM.

Q: For `CNC1CCN(c2ccncc2NC(=O)c2c(N)nn3cc(Cl)cnc23)CC1` [I-N-87, 2-amino-6-chloro-N-(4-(4-(methylamino)piperidin-1-yl)pyridin-3-yl)pyrazolo[1,5-a]pyrimidine-3-carboxamide], which Ki [1] is on record?
A: Its Ki is 10 to 1000 nM.

Q: Which Ki [1] does the source give for `CS(=O)(=O)CC1CCN(c2ccncc2NC(=O)c2c(N)nn3cc(F)cnc23)CC1` [I-N-215, 2-amino-6-fluoro-N-(4-(4-((methylsulfonyl)methyl)piperidin-1-yl)pyridin-3-yl)pyrazolo[1,5-a]pyrimidine-3-carboxamide] here?
A: The Ki was 10 to 1000 nM.

Q: `Nc1nn2cc(Cl)cnc2c1C(=O)Nc1cnccc1N1CCNCC1` [I-N-88, 2-amino-6-chloro-N-(4-(piperazin-1-yl)pyridin-3-yl)pyrazolo[1,5-a]pyrimidine-3-carboxamide] was tested. Which Ki [1] did it give?
A: Its Ki is 10 to 1000 nM.

Q: For `CC1(C)CN(C(=O)C2CCN(c3c(F)cncc3NC(=O)c3c(N)nn4cc(F)cnc34)CC2)CCN1` [I-G-27, 2-amino-N-(4-(4-(3,3-dimethylpiperazine-1-carbonyl)piperidin-1-yl)-5-fluoropyridin-3-yl)-6-fluoropyrazolo[1,5-a]pyrimidine-3-carboxamide], which Ki [1] is on record?
A: The Ki was 10 to 1000 nM.

Q: `Nc1nn2cc(Cl)cnc2c1C(=O)Nc1cnccc1N1CCNC(C(F)(F)F)C1` (stereo not drawn) [I-N-70, 2-amino-6-chloro-N-(4-(3-(trifluoromethyl)piperazin-1-yl)pyridin-3-yl)pyrazolo[1,5-a]pyrimidine-3-carboxamide] was tested. Which Ki [1] did it give?
A: Its Ki is 10 to 1000 nM.

Q: How did the Ki [1] turn out when `Nc1nn2cc(Cl)cnc2c1C(=O)Nc1cnccc1C1CCN(C2COC2)CC1` [I-C-11, 2-amino-6-chloro-N-(4-(1-(oxetan-3-yl)piperidin-4-yl)pyridin-3-yl)pyrazolo[1,5-a]pyrimidine-3-carboxamide] was run?
A: The Ki was 10 to 1000 nM.

Q: How did the Ki [1] turn out when `CN1CCC[C@H]1C(=O)N1CCN(c2ccncc2NC(=O)c2c(N)nn3cc(F)cnc23)CC1` [I-N-198, (S)-2-amino-6-fluoro-N-(4-(4-(1-methylpyrrolidine-2-carbonyl)piperazin-1-yl)pyridin-3-yl)pyrazolo[1,5-a]pyrimidine-3-carboxamide] was run?
A: The Ki was 10 to 1000 nM.

Q: With `Nc1nn2cc(F)cnc2c1C(=O)Nc1cncc(F)c1OC1CCN(C2COC2)CC1` [I-O-91, 2-amino-6-fluoro-N-(5-fluoro-4-((1-(oxetan-3-yl)piperidin-4-yl)oxy)pyridin-3-yl)pyrazolo[1,5-a]pyrimidine-3-carboxamide] as the molecule, how does the Ki [1] read?
A: The Ki was 10 to 1000 nM.

Q: Which Ki [1] does the source give for `CN1CCN(CC2CCN(c3c(F)cncc3NC(=O)c3c(N)nn4cc(F)cnc34)CC2)CC1=O` [I-N-171, 2-amino-6-fluoro-N-(5-fluoro-4-(4-((4-methyl-3-oxopiperazin-1-yl)methyl)piperidin-1-yl)pyridin-3-yl)pyrazolo[1,5-a]pyrimidine-3-carboxamide] here?
A: Its Ki is 10 to 1000 nM.

Q: How did the Ki [1] turn out when `CN(C)CCN1CCN(c2ccncc2NC(=O)c2c(N)nn3cc(Cl)cnc23)CC1` [I-N-49, 2-amino-6-chloro-N-(4-(4-(2-(dimethylamino)ethyl)piperazin-1-yl)pyridin-3-yl)pyrazolo[1,5-a]pyrimidine-3-carboxamide] was run?
A: The Ki was 10 to 1000 nM.

Q: With `Nc1nn2cc(F)cnc2c1C(=O)Nc1cncc(F)c1N1CCN(C(=O)C2CC2)CC1` [I-N-276, 2-amino-N-(4-(4-(cyclopropanecarbonyl)piperazin-1-yl)-5-fluoropyridin-3-yl)-6-fluoropyrazolo[1,5-a]pyrimidine-3-carboxamide] as the molecule, how does the Ki [1] read?
A: Its Ki is 10 to 1000 nM.

Q: With `Nc1nn2cc(F)cnc2c1C(=O)Nc1cncc(F)c1N1CCC(C(=O)N2CCC(N3CCCCC3)C2)CC1` (stereo not drawn) [I-G-64, 2-amino-6-fluoro-N-(5-fluoro-4-(4-(3-(piperidin-1-yl)pyrrolidine-1-carbonyl)piperidin-1-yl)pyridin-3-yl)pyrazolo[1,5-a]pyrimidine-3-carboxamide] as the molecule, how does the Ki [1] read?
A: The Ki was 10 to 1000 nM.

Q: How did the Ki [1] turn out when `N#CCc1cnc2c(C(=O)Nc3cnccc3OC3CCCOC3)c(N)nn2c1` (stereo not drawn) [I-O-41, 2-amino-6-(cyanomethyl)-N-(4-((tetrahydro-2H-pyran-3-yl)oxy)pyridin-3-yl)pyrazolo[1,5-a]pyrimidine-3-carboxamide] was run?
A: Its Ki is less than 10 nM.

Q: Which Ki [1] does the source give for `CN(C)Cc1ccc(Oc2ccncc2NC(=O)c2c(N)nn3cc(F)cnc23)cn1` [I-O-3, 2-amino-N-(4-((6-((dimethylamino)methyl)pyridin-3-yl)oxy)pyridin-3-yl)-6-fluoropyrazolo[1,5-a]pyrimidine-3-carboxamide] here?
A: Its Ki is 10 to 1000 nM.

Q: `CC(C)N1CCCC1C(=O)N1CCN(c2c(F)cncc2NC(=O)c2c(N)nn3cc(F)cnc23)CC1` (stereo not drawn) [I-N-205, 2-amino-6-fluoro-N-(5-fluoro-4-(4-(1-isopropylpyrrolidine-2-carbonyl)piperazin-1-yl)pyridin-3-yl)pyrazolo[1,5-a]pyrimidine-3-carboxamide] was tested. Which Ki [1] did it give?
A: Its Ki is 10 to 1000 nM.
